The values that follow come from ChEMBL document CHEMBL5236575, “Drug Hunting at the Nexus of Medicinal Chemistry and Chemical Biology and the Discovery of Novel Therapeutic Modalities” (J Med Chem, 2022).

Assay [1] concerns the target Survival motor neuron protein (Homo sapiens) (UniProt Q16637). The experiment in a line: Modulation of human SMN2 level in NSC34 cells assessed as fold change by ELISA. In kind it is cell-based.
Assay [2] concerns the target T1, von Hippel-Lindau disease tumor suppressor (Homo sapiens, UniProt P40337). The experiment in a line: Binding affinity to VHL E3 ligase (unknown origin) by fluorescence polarization (FP) assay.
Assay [3] has as its target T1, von Hippel-Lindau disease tumor suppressor. The experiment in a line: Binding affinity to VHL E3 ligase (unknown origin) assessed as dissociation constant by isothermal titration calorimetry assay.

Sequence of Survival motor neuron protein (Homo sapiens) (Q16637 whole entry): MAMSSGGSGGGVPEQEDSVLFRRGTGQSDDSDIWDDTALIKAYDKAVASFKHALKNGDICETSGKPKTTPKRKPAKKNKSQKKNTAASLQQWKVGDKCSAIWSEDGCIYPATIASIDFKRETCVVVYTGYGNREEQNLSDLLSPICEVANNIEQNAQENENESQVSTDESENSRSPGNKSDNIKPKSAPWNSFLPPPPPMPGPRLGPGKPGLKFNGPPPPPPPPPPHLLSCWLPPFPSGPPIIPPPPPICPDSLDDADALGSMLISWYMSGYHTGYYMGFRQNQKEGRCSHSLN
T1 sequence (P40337 whole entry): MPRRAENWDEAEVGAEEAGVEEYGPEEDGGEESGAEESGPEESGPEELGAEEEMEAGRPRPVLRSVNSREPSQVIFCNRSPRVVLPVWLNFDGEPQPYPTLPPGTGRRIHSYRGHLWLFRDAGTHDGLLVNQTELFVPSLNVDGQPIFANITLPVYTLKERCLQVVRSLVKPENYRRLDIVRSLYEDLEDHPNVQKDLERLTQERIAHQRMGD

For the compound `CCN1CCN(c2ccc3nc(-c4cc5c(C)nc(C)cn5n4)cc(=O)n3c2)CC1`, the EC1.5 in assay [1] (NSC-34, filed as modulator) worked out at 30 nM.
As for `CN(c1ccc(-c2ccc(-n3cccn3)cc2O)nn1)C1CC(C)(C)NC(C)(C)C1`, the fold change (FC) in assay [1] (NSC-34, filed as modulator) is 3.1.
Take `CCc1nc(C)cn2nc(-c3cc(=O)n4cc(N5CCN(CC)CC5)ccc4n3)cc12`: in assay [1] (NSC-34, filed as modulator), the EC1.5 was determined as 23 nM.
Take `CCCCC(=O)NCCC(=O)N1CCN(c2ccc3nc(-c4cc(F)c5nc(C)cn5c4)cc(=O)n3c2)CC1`: the EC1.5 in assay [1] (NSC-34) was more than 1000 nM.
Take `Cc1cn2nc(-c3cc(=O)n4cc(N5CCN(C)CC5)ccc4n3)cc2c(C)n1`: in assay [1] (NSC-34, filed as modulator), the EC1.5 was 170 nM.
Take `CN(c1ccc(-c2ccc(-c3cn[nH]c3)cc2O)nn1)C1CC(C)(C)NC(C)(C)C1`: the fold change (FC) in assay [1] (NSC-34, filed as modulator) was found to be 3.1.
In the case of `COC(=O)c1ccc(CNC(=O)[C@@H]2C[C@@H](O)CN2C(=O)CC(C)(C)C)cc1`, in assay [2], the IC50 (commonly the concentration needed to halve the response being measured) is 53.2 µM. Also, the equilibrium dissociation constant (Kd) (in general, the equilibrium constant for the complex coming apart) in assay [3] came to 45.5 µM.
For the compound `CC1(C)CC(Oc2ccc(-c3ccc(-n4cccn4)cc3O)nn2)CC(C)(C)N1`, in assay [1] (NSC-34, filed as modulator), the fold change (FC) was found to be 3.3.
Take `Oc1cc(-n2cccn2)ccc1-c1ccc(OC2CCNCC2(F)F)nn1` (centres undefined): the fold change (FC) in assay [1] (NSC-34, filed as modulator) is 1.2.
As to `Cc1cn2nc(-c3cc(=O)n4cc(N5CCNC6(CC6)C5)ccc4n3)cc(C)c2n1`, the EC1.5 in assay [1] (NSC-34, filed as modulator) was found to be 4 nM.
On the same count and under the same terms, in the case of `Cc1cn2cc(-c3cc(=O)n4cc(N5CCN(C)CC5)ccc4n3)cc(F)c2n1` it was 15 nM.
Regarding `CC1(C)CC(Oc2ccc(-c3ccc(-c4cn[nH]c4)cc3O)nn2)CC(C)(C)N1`, in assay [1] (NSC-34, filed as modulator), the fold change (FC) was 3.6.
Consider `C=C(CCNC(=O)CCCC)N1CCN(c2ccc3nc(-c4cc(F)c5nc(C)cn5c4)cc(=O)n3c2)CC1`, for which the EC1.5 in assay [1] (NSC-34, filed as modulator) worked out at 43 nM.
